Data taken from patent US20230066268A1, “INDAZOLE DERIVATIVES AND METHODS OF USE THEREOF FOR THE TREATMENT OF HERPES VIRUSES” (Merck Sharp & Dohme LLC, priority 2019, published 2023).
Like-named read-outs stand apart in the source and are kept apart here.

Key:
[1] = biological target: T1, varicella zoster virus DNA polymerase (Varicella-zoster virus, UniProt P09252); assay: VZV polymerase assay (AlphaLISA); assay type: biochemical; conditions: polymerase assay of Example 27, VZV polymerase 0.4 nM
T1 construct: made in house; host or cells: SF21 insect cells (baculovirus vector)
T1 sequence (P09252 whole entry): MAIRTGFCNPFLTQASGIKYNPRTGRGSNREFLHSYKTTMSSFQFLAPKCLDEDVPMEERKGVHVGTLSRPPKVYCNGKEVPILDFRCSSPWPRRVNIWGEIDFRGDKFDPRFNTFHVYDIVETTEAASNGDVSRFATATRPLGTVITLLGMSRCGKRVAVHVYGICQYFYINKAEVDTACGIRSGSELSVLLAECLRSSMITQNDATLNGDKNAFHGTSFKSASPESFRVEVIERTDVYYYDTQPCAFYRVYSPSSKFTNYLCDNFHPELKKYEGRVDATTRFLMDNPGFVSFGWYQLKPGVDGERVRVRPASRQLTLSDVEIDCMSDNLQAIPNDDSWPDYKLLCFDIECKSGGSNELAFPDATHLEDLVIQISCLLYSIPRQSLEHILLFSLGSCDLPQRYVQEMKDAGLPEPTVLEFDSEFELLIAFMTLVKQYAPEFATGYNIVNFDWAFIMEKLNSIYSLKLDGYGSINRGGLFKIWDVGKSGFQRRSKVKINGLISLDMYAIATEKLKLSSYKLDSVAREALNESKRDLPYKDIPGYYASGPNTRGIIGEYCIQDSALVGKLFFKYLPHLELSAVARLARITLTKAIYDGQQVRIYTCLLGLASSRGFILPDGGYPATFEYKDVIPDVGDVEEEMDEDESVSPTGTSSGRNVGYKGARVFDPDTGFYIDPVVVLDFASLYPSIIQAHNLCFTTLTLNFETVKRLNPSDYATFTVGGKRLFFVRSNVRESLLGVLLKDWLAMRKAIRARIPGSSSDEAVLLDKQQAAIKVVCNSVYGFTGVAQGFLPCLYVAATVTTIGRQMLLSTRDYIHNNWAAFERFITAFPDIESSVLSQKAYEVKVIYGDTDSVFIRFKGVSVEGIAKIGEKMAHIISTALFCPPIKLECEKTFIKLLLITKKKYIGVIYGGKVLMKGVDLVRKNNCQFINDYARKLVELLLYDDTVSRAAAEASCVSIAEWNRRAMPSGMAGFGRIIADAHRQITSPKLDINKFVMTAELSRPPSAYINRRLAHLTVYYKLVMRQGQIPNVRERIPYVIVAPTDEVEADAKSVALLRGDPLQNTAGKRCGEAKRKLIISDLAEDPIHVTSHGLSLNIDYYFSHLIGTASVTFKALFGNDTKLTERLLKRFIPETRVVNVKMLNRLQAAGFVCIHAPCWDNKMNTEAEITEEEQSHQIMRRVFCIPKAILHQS
Method: (§1) CMV and VZV Polymerase Assays
(§2) Human cytomegalovirus and varicella zoster virus DNA polymerases were expressed via baculovirus vector in SF21 cells and purified. Heterodimeric nucleic acid substrate used in the herpesvirus polymerase reactions were generated by annealing a 59-mer template to a 17-mer digoxigenin-labeled primer. Polymerase (HCMV final concentration of 0.2 nM; VZV final concentration of 0.4 nM) was combined with an inhibitor compound or DMSO in assay buffer (10 mM HEPES, pH 7.5, 25 mM KCl, 25 mM NaCl, 5 mM MgCl2, 5% glycerol, 0.67 mg/mL bovine serum albumin, and 1 mM tris(2-carboxyethyl)phosphine)), and this mixture was pre-incubated for 30 minutes at room temperature in 384-well microtiter plates. The polymerization reaction was initiated by the addition of template/primer substrate (final concentration: 1.6 nM) and dNTPs (final concentration: 24 nM dCTP, 24 nMdGTP, 16 nM dATP, 16 nM dTTP, and 0.8 nM biotin-dUTP). After a 60 minute incubation period at 37° C., the reactions were terminated using quench buffer (25 mM HEPES pH 7.5, 100 mM NaCl, 0.25% Tween-20, 12 mM EDTA, and 1 mg/mL bovine serum albumin). Incorporation of biotinylated UTP was detected with 2.5-5 μg/mL anti-DIG AlphaLISA acceptor beads and 5-10 μg/mL streptavidin AlphaLISA donor beads (PerkinElmer). Compound effects were normalized to the window defined by the controls (DMSO only and pre-quenched wells) and were fit using a 4-parameter algorithm to report an IC50.

[2] = biological target: T2, Human cytomegalovirus DNA polymerase (Human cytomegalovirus, UniProt P08546); assay: CMV polymerase assay (AlphaLISA); assay type: biochemical; conditions: polymerase assay of Example 27, HCMV polymerase 0.2 nM
T2 construct: made in house; host or cells: SF21 insect cells (baculovirus vector)
T2 sequence (P08546 whole entry): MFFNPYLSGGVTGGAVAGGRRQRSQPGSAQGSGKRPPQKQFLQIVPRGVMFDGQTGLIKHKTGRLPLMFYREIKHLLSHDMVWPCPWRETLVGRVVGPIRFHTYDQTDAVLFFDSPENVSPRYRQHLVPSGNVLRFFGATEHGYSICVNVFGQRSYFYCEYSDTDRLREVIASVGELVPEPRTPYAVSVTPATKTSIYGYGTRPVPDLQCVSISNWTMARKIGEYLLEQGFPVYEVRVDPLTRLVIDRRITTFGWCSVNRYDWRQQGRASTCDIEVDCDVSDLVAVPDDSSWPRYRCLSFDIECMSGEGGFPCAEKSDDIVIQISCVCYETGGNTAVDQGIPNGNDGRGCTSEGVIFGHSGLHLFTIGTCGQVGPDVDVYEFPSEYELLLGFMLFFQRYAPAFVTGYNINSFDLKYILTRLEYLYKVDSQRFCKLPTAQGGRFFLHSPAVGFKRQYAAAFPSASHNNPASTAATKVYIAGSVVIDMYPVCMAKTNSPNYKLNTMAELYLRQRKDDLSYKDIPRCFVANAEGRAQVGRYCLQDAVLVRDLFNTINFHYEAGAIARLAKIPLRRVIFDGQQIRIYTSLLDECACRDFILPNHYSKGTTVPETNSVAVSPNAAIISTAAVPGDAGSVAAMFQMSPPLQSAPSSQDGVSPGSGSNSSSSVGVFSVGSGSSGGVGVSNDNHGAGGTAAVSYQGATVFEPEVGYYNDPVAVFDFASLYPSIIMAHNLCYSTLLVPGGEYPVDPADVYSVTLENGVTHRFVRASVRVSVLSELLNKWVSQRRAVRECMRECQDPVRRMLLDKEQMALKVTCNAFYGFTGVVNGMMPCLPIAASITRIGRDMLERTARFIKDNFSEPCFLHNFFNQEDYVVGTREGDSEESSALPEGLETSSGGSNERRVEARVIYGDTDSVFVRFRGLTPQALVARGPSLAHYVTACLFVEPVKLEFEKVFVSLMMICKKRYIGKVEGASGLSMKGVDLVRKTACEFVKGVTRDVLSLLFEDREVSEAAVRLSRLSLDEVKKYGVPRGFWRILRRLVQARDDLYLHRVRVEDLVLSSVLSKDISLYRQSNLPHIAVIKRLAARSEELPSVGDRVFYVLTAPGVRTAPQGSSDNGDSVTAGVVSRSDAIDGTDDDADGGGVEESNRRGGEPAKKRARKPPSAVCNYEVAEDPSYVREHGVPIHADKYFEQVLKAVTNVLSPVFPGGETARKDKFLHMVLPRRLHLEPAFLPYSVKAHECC
Method: as §1, §2

[3] = test system: HSV-1 Strain F in Vero or MRCS cells; assay: Viral qPCR assay, HSV-1; assay type: cell-based; conditions: read-out: HSV1 Cell (EC50), values marked *
Method: (§3) MRCS and Vero cells were obtained from ATCC and were maintained at 37° C./5% CO2/90% relative humidity in Minimal Essential Medium with 10% fetal bovine serum, […], 100 units/mL penicillin and 100 ug/mL streptomycin. Assay plates were prepared by dispensing compounds dissolved in DMSO into wells of 384 well collagen-coated plates using an ECHO acoustic dispenser. Each test compound was tested in a 10-point, serial 3-fold dilution. Controls included uninfected cells and infected cells treated only with DMSO. Assays were initiated by mixing selected cells, in suspension, with virus, and dispensing 50 μl/well infected cells to pre-plated compounds. Plates were incubated at 37° C./5% CO2/90% relative humidity for ˜72 hours to permit genomic replication, and infected cells were lysed by the addition of an equal volume of lysis buffer (10 mM Tris-HCl, pH8, 50 mM KCl, 2 mM MgCl2, 0.45% NP-40, 0.45% Tween-20, and 100 μg/mL proteinase K). An aliquot of the lysate was then transferred to a 384-well PCR plate and incubated at 56° C. for 1 hour, and then at 95° C. for 10 minutes. Levels of a viral gene were measured in 10 ul qPCR assays using TaqMan® Gene Expression Master Mix (Applied Biosystems) and an 7900HT Fast Real-Time PCR System with 384-Well Block Module. 7-point, serial 10-fold dilutions of a plasmid standard were run on each plate to generate a standard curve, and genome copies numbers were calculated by plotting experimental Ct onto linear regression of the standard curve. Compound effects on viral genome copy number were normalized to the window defined by the controls. Calculated % effects were fit using a 4-parameter algorithm, and EC50 was reported.
(§4) HCMV: Strain AD169 was assayed in MRC-5 cells and was used at 0.05-0.1 pfu/cell. The assays were performed in either growth media or in the same media with 50% fetal bovine serum. Primer-probe set was Thermo Fisher Assay ID=AIFATFK. HSV-1: Strain F was assayed in Vero or MRCS cells and was used at 0.0005-0.004 pfu/cell in growth medium. Primer-probe set was Thermo Fisher Assay ID=AIBJZIB. HSV-2: Strain G was assayed in Vero or MRCS cells and was used at 0.004-0.4 pfu/cell in growth medium. Primer-probe set was Thermo Fisher Assay ID=AICSXOJ.

[4] = test system: HCMV Strain AD169 in MRC-5 cells; assay: CMV cell assay; assay type: cell-based
Method: as §3, §4

[5] = test system: HSV-2 Strain G in Vero or MRCS cells; assay: Viral qPCR assay, HSV-2; assay type: cell-based; conditions: read-out: HSV2 Cell (EC50), values marked *
Method: as §3, §4

[6] = Human alphaherpesvirus 1, starred values: viral qPCR assay of Example 26, ~72 hours, Vero or MRCS cells
[7] = Human betaherpesvirus 5, AD169, MRC5, footnote b: assay described in Example 25, read-out: CMV Cell^b (EC50)
[8] = Human alphaherpesvirus 2, starred values: viral qPCR assay of Example 26, ~72 hours, Vero or MRCS cells

SMILES | IC50 ([1]; VZV^a (IC50)) [µM] | IC50 ([2]; CMV^a (IC50)) [µM] | EC50 ([3]; Human alphaherpesvirus 1, Vero, 72 h) [µM] | EC50 ([4]; Human betaherpesvirus 5, AD169, MRC5, read-out: CMV Cell^b (EC50), footnote b: assay described in Example 25) [µM] | EC50 ([5]; Human alphaherpesvirus 2, Vero, 72 h) [µM] | IC50 ([1]; read-out: VZV^a (IC50)) [µM] | IC50 ([2]; read-out: CMV^a (IC50)) [µM] | EC50 [3, 6] [µM] | EC50 [4, 7] [µM] | EC50 [5, 8] [µM]
NCCn1nc(C(=O)NCc2ccc(Cl)cc2)c2ccc(NCc3cnns3)c(Cl)c21 [Compound 3] | 0.0029 | 0.0096 | 0.085 | 0.071 | 0.17 |  |  |  |  | 
Cn1nc(C(=O)NCc2ccc(Cl)cc2)c2c3c(ccc21)C(N1CCOCC1)CC3 (centres unmarked) [Compound 17] |  |  |  |  |  | 0.014 | 0.15 | 0.31 | 1 | 0.35
Cn1nc(C(=O)NCc2ccc(Cl)cc2)c2cc(C[C@H]3COC(=O)N3)ccc21 [Compound 33] |  |  |  |  |  | 0.035 | 0.078 | 0.2 | 0.16 | 0.11
Cn1nc(C(=O)NCc2ccc(Cl)cc2)c2cc(C[C@H]3CCC(=O)N3)ccc21 [Compound 34] |  |  |  |  |  | 0.024 | 0.067 | 0.22 | 0.33 | 0.24
